Data as given in patent publication US9198879B2, “Pharmacologically optimized multimodal drug delivery system for nordihydroguiaretic acid (NDGA)” (Napo Pharmaceuticals, Inc., priority 2011, dated 2015).
“Also recorded” adds a separate entry of the source.

What was measured:
[1] = system: liver triglyceride secretion; assay: Liver triglyceride secretion; format: in vivo; conditions: NDGA treatment
Excerpt: (§1) It is likely that the triglyceride-lowering effect of NDGA may also be explained, at least in part, by the suppression of free fatty acid (FFA) release. Free fatty acids in the circulation can enter the liver and can be re-assembled into triglycerides by the process of re-esterification. […] It should be noted that other mechanisms for reducing triglycerides, such as increased triglyceride clearance, are not ruled out by these findings.
The triglyceride-lowering effect of NDGA may be explained by the suppression of free fatty acid (FFA) release. Free fatty acids in the circulation can enter the liver and be re-assembled into triglycerides in a process known as re-esterification.

[2] = system: fructose-fed hypertriglyceridemic rats; assay: Fructose-fed hypertriglyceridemic rat model; format: in vivo
Excerpt: as §1
(§2) These reductions in free fatty acid concentration could result from either decreased production (by reduced lipolysis) or increased removal of free fatty acids from the circulation by liver, fat or muscle.

[3] = system: Ob/ob mice; assay: Glucose lowering in ob/ob mice; format: in vivo, mouse; conditions: ob/ob mice with diabetes, given orally
Excerpt: (§3) In this study, the following animal models where used: • Db/db mice: homozygous mice are a model of obesity, diabetes and dyslipedemia where their leptin receptor activity is deficient. • Ob/ob mice: obese mice with diabetes. • Db/lean mice: heterozygous mice that are not diabetic. • Fat/STZ rats: non-genetically diabetic overweight rats that are fed diets enriched in fat and made hyperglycemic by chemically removing their pancreatic function to reduce insulin production by treating them with streptozotocin (STZ). • Fructose/STZ rats: non-diabetic rats that are fed diets enriched in fructose and made hyperglycemic by treating them with STZ. • ZDF rats: obese and hyperglycemic rats with other metabolic disorders.
(§4) Baseline glucose and triglyceride concentrations, where appropriate, were measured for both diabetic and normal animals.

[4] = system: Fat/STZ rats; assay: Fat/STZ rat model, oral NDGA in CMC, PEG or Gelucire vehicles: glucose, triglycerides, FFA; format: in vivo; conditions: for glucose: versus 366+/−32; for glucose levels: 250 mg/kg twice daily
Procedure: (§5) In these studies, a variety of rodent models were used to evaluate the glucose-lowering properties and its effects on lipids, such as lowering of triglycerides. NDGA was administered orally to animals over a wide range of doses (10 to 350) mg/kg.
In this experiment, NDGA was dissolved in the following: • CMC: 0.25% carboxymethylcellulose • Gelucire: “Gelucire 44/14 (Gatefosse, Wildwood, N.J.; a well-defined mixture of mono-, di-, and tri-glycerides and mono- and di-fatty acid esters of polyethylene glycol) • PEG: 85% polyethylenene glycol, 10% tween and 5% propanediol
as §3, §4

[5] = system: fructose-fed and fat-fed/STZ rat models; assay: NDGA versus metformin at equimolar doses in fructose-fed and fat-fed/STZ rat models; format: in vivo
Excerpt: NDGA has been studied by administering it orally to animals to determine its effectiveness for lowering glucose, free fatty acid (FFA) and triglyceride levels. […] See Example 2 below. […] There was no significant baseline difference between the NDGA and metformin groups.
In one such study, the effects of NDGA and metformin as a control drug for treatment of diabetes were studied in a non-diabetic model of hypertriglyceridemia (fructose-fed) and a non-genetic, (i.e., streptozotocin (STZ) treated) model of diabetes. […] See FIGS. 2 (glucose) and 3 (triglycerides).

[6] = system: rodent models; assay: Oral NDGA in a variety of rodent models (model not given); format: in vivo
Procedure: as §5
NDGA was effective at lowering glucose when formulated in either aqueous or lipophilic vehicles to varying degrees of efficacy.

[7] = system: Fructose/STZ rats; assay: Triglyceride and FFA lowering in Fructose/STZ rats; format: in vivo, rat; conditions: fructose-fed/STZ rats
Excerpt: as §3, §2

[8] = equimolar doses of NDGA or metformin

CC(Cc1ccc(O)c(O)c1)C(C)Cc1ccc(O)c(O)c1 (centres unmarked) [NDGA, nordihydroguaiaretic acid] was tested, and the liver triglyceride secretion [1] was “inhibit liver triglyceride secretion”, the “free fatty acid (FFA) concentrations” value ([2]; fructose-fed hypertriglyceridemic rats) was “decreases free fatty acid (FFA) concentrations” and the glucose lowering ([2]; fructose-fed rats, 80 mg/kg twice daily) was “did not lower glucose levels”. The triglyceride lowering ([2]; hypertriglyceridemic rat model, low doses of 10 and 20 mg/kg) was “triglyceride-lowering effects”, the glucose lowering [3] was “significantly lowers glucose” and the triglyceride levels ([4]; Fat/STZ rat, 40 mg/Kg once daily (QD), CMC delivery vehicle, 327 +/−25 without NDGA, no significant lowering) was 270 ± 26 mg/dL. It also gave a triglyceride levels ([4]; Fat/STZ rat, 40 mg/kg QD, Gelucire delivery vehicle, 674+/−84 without NDGA, significant lowering) of 312 ± 38 mg/dL, a glucose ([4]; Fat/STZ rat, 40 mg/kg QD, Gelucire vehicle) of 299 ± 25 mg/dL and a glucose ([4]; Fat/STZ rat, 250 mg/kg QD, Gelucire vehicle) of 325 ± 26 mg/dL. For the same compound, the triglyceride ([4]; Fat/STZ rat, 250 mg/kg QD, Gelucire vehicle, versus 674+/−84) was 249 ± 42 mg/dL, the glucose levels ([4]; Fat/STZ rat, Gelucire vehicle, 497+/−22 without NDGA, significant lowering) was 380+/−28 and the glucose levels ([4]; Fat/STZ rat, PEG delivery vehicle, 393+/−20 without NDGA, no significant lowering) was 364+/−20. The glucose lowering ([4]; Fat/STZ rats, given orally) was “significantly lowers glucose”, the “free fatty acid (FFA) concentrations” value ([4]; fat-fed/STZ rats) was “decreases free fatty acid (FFA) concentrations” and the plasma triglyceride lowering ([4]; fat-fed/STZ rats) was “significantly and dramatically lowered plasma triglycerides”. The glucose lowering ([4]; fat/STZ rat, single daily dose of 150 mg/kg) was “ineffective in lowering glucose”, the “change in insulin concentrations” value [5, 8] was “without changing insulin concentration; also recorded: without any change in insulin concentrations” and the “glucose lowering in comparison to the vehicle control” value [5, 8] was “significantly lowered glucose”. For the same compound, the “triglyceride lowering in comparison to the vehicle control” value [5, 8] was “significantly lowered triglycerides”, the “lowering of triglyceride concentrations in comparison to vehicle” value ([5]; equimolar dosing with metformin) was 80% and the triglyceride lowering ([6]; CMC, PEG or Gelucire vehicles, doses as low as 10 mg/kg twice per day) was “lowered triglyceride concentrations”. For the same compound, the triglyceride lowering ([6]; administered orally just once per day) was “lowered triglycerides”, the insulin concentrations ([6]; highest dose studied, 350 mg/kg twice daily) was “did not result in increased insulin concentrations” and the glucose lowering ([6]; once daily administration) was “generally ineffective at lowering glucose concentrations”. The “free fatty acid (FFA) concentrations” value [7] was “decreases free fatty acid (FFA) concentrations” and the plasma triglyceride lowering [7] was “significantly and dramatically lowered plasma triglycerides”.
